From patent US6916820B1, “Neurotrophic substituted pyrimidines” (Krenitsky Pharmaceuticals, Inc., priority 1999, dated 2005) come the findings set out here.

Data set [1] concerns choline acetyltransferase (ChAT) activity in PC12 cells. The data set can be described thus: Choline acetyltransferase (ChAT) assay in NGF-treated PC12 cells (screen for NGF-like activity). In kind it is cell-based, rat. The conditions noted are these: 3 days incubation with test compound, compared with NGF alone. The method, then: Cultured PC12 cells (rat adrenal pheochromocytoma from ATCC) have receptors for NGF. Responses include promotion of neurite outgrowth and elevation of choline acetyltransferase (ChAT) (L. A. Green and A. S. Tischler, Cell Neurobiol., 3, 373 (1982)).
The following assay is modified from that described in H L White and P W Scates, Neurochem. Res., 16, 63 (1991). PC12 cells were cultured at 37° C. in RPMI supplemented with HEPES buffer, pH 7.5 (to 10 mM), fetal bovine serum, horse serum, glutamine, penicillin, streptomycin and non-essential amino acids. Cultures were split 1:3 every 3 to 4 days. Exponentially dividing cells were plated into fresh medium on collagen-coated 12-well plastic dishes (10^5 cells/well). After allowing one day for cell attachment, the medium was replaced with low serum medium, with or without test compounds with each condition in triplicate. The medium may contain up to 0.2% ethanol, which was used as a solvent for most compounds tested. Cells were examined for morphological changes using an Olympus IMT-2 inverted research microscope. After 3 days incubation with test compounds, medium was removed and replaced with 0.2 ml of lysis and ChAT assay mixture. The plates were incubated at 37° C. for 2 hours and then placed into a freezer at −20° C. […]
The assay mixture contained 100 mM phosphate, pH 7.4, 0.1% NP-40, 150 mM NaCl, 1.5 mM choline, 10 mM EDTA, 0.1 mM eserine, 0.1 mM acetyl-coenzyme A and about 0.5 uCi (40-70 Ci/mol) [14C]acetyl-coenzyme A in each ml of mixture. […] The vials were centrifuged at 3000 rpm (max.=16 cm) for 15 minutes and then counted in a Beckman LS6500 scintillation counter. […]
The following data were obtained for representative compounds of the present invention which (1) increased the activity of choline acetyltransferase ChAT), (2) enhanced NGF-stimulated neurite outgrowth and/or (3) potentiated or appeared additive with the action of NGF itself. The concentration at which the test compound doubled the ChAT activity over the activity with NGF alone (no test compound) was recorded as the EC2x value: […]

On to `Cl.Nc1ncc(Oc2ccc(Cl)cc2)c(N[C@H]2CC[C@H](O)CC2)n1`, for which the melting point (in general, the temperature of the solid-liquid transition) fell in the range of 155 to 156 °C.
As for `Nc1ncc(Oc2ccc(Cl)cc2)c(N[C@H]2CC[C@H](O)CC2)n1` [Example 3, 2-amino-5-(4-chlorophenoxy)-4-(trans-4-hydroxycyclohexylamino)pyrimidine], the melting point was 154 to 155 °C. Moreover, the “EC2x (concentration at which the test compound doubled the ChAT activity over the activity with NGF alone)” value in data set [1] turned out to be 0.4 µM.
Consider `Cl.Nc1ncc(Oc2ccc(Cl)cc2Cl)c(N[C@H]2CC[C@H](O)CC2)n1` [Example 5, 2-amino-5-(2,4-dichlorophenoxy)-4-(trans-4-hydroxycyclohexylamino)pyrimidine hydrochloride], for which the melting point fell in the range of 138 to 145 °C. For the same molecule, in data set [1], the “EC2x (concentration at which the test compound doubled the ChAT activity over the activity with NGF alone)” value came out at 1.2 µM.
Consider `Cl.Nc1ncc(Oc2ccc(Cl)cc2)c(NC2CCC(=O)CC2)n1` [Example 10, 2-amino-5-(4-chlorophenoxy)-4-(4-oxocyclohexylamino)pyrimidine hydrochloride], for which, in data set [1], the “EC2x (concentration at which the test compound doubled the ChAT activity over the activity with NGF alone)” value is 0.7 µM.
